For one test, the target named is EGFR L858R/C797S (Homo sapiens, UniProt P00533, C797S/L858R). Nature of the test: Biochemical EGFR kinase assay (Lance Ultra TR-FRET), double mutant L858R/C797S. In short, it runs like this: (§1)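 Step 1: compound in kinase buffer, 0.003–10 μM. Step 2: kinase reaction 1 h at room temperature. Step 4: TR-FRET read at 615/665 nm; IC50 calculated.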
(TR-FRET usually uses a lanthanide donor and a delayed reading to cut background.)

In another test the target is EGFR wildtype (WT) (Homo sapiens, UniProt P00533). The experiment in a line: Biochemical EGFR kinase assay (Lance Ultra TR-FRET), wildtype. In short, it runs like this:
as §1

The next test has as its target EGFR del19/C797S (Homo sapiens, UniProt P00533, C797S/DEL746-750). The experiment in a line: Biochemical EGFR kinase assay (Lance Ultra TR-FRET), double mutant del19/C797S. An outline of the steps:
as §1

The target of another test is EGFR L858R/T790M/C797S (Homo sapiens, UniProt P00533, C797S/L858R/T790M). The experiment in a line: Biochemical EGFR kinase assay (Lance Ultra TR-FRET), triple mutant L858R/T790M/C797S. In short, it runs like this: as §1
The target of another test is EGFR del19/T790M/C797S (Homo sapiens, UniProt P00533, C797S/DEL746-750/T790M). Nature of the test: Biochemical EGFR kinase assay (Lance Ultra TR-FRET), triple mutant del19/T790M/C797S. An outline of the steps:
as §1

Where [1] appears, read: IC50 L858R/C797S (nM) 100 μM ATP, 100 μM ATP.
Setting [2] is: Km ATP, read-out: IC50 L858R/C797S (nM) Km ATP.
Setting [3] is: IC50 WT (nM) 100 μM ATP, 100 μM ATP.
The mark [4] stands for this setting: Km ATP, read-out: IC50 WT (nM) Km ATP.
Where [5] appears, read: IC50 del19/C797S (nM) 100 μM ATP, 100 μM ATP.
Setting [6] is: Km ATP, read-out: IC50 del19/C797S (nM) Km ATP.
Where [7] appears, read: IC50 L858R/T790M/C797S (nM) 100 μM ATP, 100 μM ATP.
The mark [8] stands for this setting: Km ATP, read-out: IC50 L858R/T790M/C797S (nM) Km ATP.
Setting [9] is: IC50 del19/T790M/C797S (nM) 100 μM ATP, 100 μM ATP.
[10] abbreviates: Km ATP, read-out: IC50 del19/T790M/C797S (nM) Km ATP.

Here are results for six compounds from patent publication US12258327B2, “5-membered heteroaryl-containing aminopyridine compounds as EGFR inhibitors” (YUHAN CORPORATION, priority 2021, dated 2025).

Read-outs that look alike come from different tables or passages of the source. Where only a bound is given, the exact number is not on record here.

Sequence of EGFR del19/T790M/C797S (P00533 with tags, fused parts or gaps DEL746-750/T790M/C797S): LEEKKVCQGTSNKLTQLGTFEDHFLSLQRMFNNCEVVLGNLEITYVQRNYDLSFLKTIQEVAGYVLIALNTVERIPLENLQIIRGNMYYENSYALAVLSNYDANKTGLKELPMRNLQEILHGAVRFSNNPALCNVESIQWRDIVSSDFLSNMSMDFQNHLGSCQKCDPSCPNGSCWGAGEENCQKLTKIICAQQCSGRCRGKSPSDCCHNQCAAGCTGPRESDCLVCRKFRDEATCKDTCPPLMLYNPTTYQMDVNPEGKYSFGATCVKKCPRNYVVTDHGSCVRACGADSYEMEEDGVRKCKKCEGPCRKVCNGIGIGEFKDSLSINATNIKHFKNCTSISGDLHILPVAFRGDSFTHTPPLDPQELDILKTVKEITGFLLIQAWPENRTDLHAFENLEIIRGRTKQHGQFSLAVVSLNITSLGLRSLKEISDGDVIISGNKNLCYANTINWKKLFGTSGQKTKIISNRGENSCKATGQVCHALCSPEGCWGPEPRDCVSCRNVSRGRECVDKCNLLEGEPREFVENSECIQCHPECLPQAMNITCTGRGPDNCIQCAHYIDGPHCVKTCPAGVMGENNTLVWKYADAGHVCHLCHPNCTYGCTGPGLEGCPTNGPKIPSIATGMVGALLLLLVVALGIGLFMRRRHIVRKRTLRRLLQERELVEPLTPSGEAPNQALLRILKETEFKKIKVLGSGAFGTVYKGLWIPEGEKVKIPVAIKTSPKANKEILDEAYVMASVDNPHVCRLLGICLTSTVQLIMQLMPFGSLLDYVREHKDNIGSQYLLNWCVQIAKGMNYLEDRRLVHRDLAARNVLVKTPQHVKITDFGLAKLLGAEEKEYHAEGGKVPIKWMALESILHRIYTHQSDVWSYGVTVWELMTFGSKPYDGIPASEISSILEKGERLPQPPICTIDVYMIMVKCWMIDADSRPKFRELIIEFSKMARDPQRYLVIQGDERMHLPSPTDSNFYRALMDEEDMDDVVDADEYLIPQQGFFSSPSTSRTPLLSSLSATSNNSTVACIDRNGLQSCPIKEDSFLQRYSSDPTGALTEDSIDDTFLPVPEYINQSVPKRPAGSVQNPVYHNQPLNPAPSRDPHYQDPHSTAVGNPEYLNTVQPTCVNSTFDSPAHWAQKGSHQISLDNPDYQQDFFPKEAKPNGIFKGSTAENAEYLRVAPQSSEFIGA
Sequence of EGFR L858R/C797S (P00533 25-1210 C797S/L858R): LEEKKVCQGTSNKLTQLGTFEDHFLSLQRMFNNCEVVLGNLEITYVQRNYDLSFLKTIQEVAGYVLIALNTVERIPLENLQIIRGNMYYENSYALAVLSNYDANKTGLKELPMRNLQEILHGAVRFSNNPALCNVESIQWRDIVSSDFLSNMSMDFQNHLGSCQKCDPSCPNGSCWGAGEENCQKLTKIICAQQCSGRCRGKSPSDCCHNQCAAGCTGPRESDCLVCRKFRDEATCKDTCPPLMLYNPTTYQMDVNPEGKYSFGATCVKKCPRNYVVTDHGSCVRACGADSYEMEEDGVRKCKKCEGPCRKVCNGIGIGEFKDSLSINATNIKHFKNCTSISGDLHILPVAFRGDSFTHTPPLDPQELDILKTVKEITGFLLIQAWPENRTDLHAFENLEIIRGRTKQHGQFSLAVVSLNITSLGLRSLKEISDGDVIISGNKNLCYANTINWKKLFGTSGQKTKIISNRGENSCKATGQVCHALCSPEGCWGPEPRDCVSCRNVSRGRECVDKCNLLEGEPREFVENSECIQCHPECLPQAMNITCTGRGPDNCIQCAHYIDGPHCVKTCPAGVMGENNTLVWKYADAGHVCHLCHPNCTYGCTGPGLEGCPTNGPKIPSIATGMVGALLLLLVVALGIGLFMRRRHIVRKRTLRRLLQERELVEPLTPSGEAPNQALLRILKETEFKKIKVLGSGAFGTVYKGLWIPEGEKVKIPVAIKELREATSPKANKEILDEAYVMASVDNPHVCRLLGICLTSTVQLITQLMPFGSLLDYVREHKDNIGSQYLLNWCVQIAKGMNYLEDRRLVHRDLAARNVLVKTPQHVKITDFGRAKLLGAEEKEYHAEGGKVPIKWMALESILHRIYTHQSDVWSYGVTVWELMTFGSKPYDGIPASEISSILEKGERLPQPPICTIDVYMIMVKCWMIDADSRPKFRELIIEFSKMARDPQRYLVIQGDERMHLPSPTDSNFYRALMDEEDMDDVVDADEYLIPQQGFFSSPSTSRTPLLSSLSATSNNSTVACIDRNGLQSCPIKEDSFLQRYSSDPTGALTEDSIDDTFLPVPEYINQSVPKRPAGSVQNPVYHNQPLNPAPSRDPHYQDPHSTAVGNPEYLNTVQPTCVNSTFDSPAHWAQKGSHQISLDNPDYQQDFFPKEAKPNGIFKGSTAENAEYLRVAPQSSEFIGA
Sequence of EGFR wildtype (WT) (P00533 25-1210): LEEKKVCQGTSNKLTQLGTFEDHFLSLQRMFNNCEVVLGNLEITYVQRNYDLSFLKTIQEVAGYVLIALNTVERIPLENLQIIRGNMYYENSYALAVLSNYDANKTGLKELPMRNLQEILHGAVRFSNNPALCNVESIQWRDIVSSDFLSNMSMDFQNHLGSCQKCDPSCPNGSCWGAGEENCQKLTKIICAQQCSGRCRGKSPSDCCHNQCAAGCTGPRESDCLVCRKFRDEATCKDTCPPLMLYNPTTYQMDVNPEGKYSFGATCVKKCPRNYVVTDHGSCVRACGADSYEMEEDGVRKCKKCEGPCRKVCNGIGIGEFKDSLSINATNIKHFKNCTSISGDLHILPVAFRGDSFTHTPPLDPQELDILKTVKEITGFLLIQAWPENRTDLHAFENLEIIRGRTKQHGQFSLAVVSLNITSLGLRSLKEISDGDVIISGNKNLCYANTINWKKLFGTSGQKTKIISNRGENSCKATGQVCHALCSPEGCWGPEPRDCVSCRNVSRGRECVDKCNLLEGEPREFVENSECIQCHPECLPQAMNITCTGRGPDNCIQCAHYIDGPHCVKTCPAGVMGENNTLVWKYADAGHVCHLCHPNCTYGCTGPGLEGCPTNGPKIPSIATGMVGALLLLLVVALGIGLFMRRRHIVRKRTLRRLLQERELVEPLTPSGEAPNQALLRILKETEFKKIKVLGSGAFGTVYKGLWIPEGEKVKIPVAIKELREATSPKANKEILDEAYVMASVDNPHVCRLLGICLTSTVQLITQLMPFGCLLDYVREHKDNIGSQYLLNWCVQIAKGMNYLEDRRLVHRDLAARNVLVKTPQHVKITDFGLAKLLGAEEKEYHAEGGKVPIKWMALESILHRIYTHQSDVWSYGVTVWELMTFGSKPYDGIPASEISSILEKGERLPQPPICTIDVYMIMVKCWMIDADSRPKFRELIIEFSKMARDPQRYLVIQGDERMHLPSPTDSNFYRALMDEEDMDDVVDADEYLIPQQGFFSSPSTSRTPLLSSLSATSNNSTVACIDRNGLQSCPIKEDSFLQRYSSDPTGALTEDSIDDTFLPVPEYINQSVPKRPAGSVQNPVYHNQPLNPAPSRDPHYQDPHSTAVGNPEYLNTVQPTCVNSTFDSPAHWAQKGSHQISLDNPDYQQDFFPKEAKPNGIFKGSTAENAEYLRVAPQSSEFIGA
Sequence of EGFR del19/C797S (P00533 with tags, fused parts or gaps DEL746-750/C797S): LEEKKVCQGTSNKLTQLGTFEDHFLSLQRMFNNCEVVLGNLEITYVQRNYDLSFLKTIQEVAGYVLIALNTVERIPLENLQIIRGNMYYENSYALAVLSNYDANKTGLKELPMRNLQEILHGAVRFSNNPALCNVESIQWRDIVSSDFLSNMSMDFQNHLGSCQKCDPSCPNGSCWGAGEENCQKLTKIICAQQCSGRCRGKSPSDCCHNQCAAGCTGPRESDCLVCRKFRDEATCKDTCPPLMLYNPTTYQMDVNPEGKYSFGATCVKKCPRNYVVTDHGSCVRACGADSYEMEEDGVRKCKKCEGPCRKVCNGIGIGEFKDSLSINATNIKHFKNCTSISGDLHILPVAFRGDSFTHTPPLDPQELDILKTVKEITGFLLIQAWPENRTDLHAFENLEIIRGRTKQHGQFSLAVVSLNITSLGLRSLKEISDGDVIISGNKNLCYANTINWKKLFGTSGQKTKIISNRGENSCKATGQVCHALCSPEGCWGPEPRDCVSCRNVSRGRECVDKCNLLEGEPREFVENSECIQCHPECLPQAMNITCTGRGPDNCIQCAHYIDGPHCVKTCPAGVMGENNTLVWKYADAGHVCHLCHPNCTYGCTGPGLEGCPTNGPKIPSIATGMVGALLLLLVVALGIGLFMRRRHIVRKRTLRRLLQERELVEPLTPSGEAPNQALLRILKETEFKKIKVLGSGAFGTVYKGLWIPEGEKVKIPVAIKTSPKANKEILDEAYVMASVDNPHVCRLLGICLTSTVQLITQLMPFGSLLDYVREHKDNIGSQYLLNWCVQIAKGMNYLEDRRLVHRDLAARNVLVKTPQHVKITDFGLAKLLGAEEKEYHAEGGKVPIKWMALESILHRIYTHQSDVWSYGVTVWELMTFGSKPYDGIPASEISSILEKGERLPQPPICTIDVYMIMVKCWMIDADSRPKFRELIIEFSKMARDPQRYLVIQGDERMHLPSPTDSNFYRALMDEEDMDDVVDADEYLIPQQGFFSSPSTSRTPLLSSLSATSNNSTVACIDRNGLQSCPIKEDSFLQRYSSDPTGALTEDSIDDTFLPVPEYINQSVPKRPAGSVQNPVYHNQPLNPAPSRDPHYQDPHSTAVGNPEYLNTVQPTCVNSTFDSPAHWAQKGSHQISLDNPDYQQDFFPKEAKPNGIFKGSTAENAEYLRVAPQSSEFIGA

On to `CN(C)C[C@H]1CC[C@@H](Nc2cc(Nc3ccnc(-c4cnn(S(=O)(=O)C5CC5)c4)n3)ncc2-c2cc3n(n2)CCCC3)CC1` [Example 277, N^2-(2-(1-(Cyclopropylsulfonyl)-1H-pyrazol-4-yl)pyrimidin-4-yl)-N^4-((1s,4s)-4-((dimethylamino)methyl)cyclohexyl)-5-(4,5,6,7-tetrahydropyrazolo[1,5-a]pyridin-2-yl)pyridine-2,4-diamine], for which the IC50 worked out at 1.6 nM at EGFR L858R/C797S (setting [1]); 0.2 nM on EGFR L858R/C797S (setting [2]); 47.5 nM at EGFR wildtype (WT) (setting [3]); 0.4 nM at EGFR wildtype (WT) (setting [4]); 0.5 nM on EGFR del19/C797S (setting [5]); 0.2 nM on EGFR del19/C797S (setting [6]). The IC50 at EGFR L858R/T790M/C797S (setting [7]) turned out to be 0.3 nM; on EGFR L858R/T790M/C797S (setting [8]) it was 0.1 nM; against EGFR del19/T790M/C797S (setting [9]), 0.3 nM; at EGFR del19/T790M/C797S (setting [10]), 0.2 nM.
Regarding `CN(C)C[C@H]1C[C@H](CNc2cc(Nc3ccnc(-c4cnn(S(=O)(=O)C5CC5)c4)n3)ncc2-c2ccn(C(F)F)n2)C1` [Example 209, N^2-(2-(1-(Cyclopropylsulfonyl)-1H-pyrazol-4-yl)pyrimidin-4-yl)-5-(1-(difluoromethyl)-1H-pyrazol-3-yl)-N^4-(((1r,3r)-3-((dimethylamino)methyl)cyclobutyl)methyl)pyridine-2,4-diamine], the IC50 was 4.8 nM on EGFR L858R/C797S (setting [2]); 13.1 nM on EGFR wildtype (WT) (setting [4]); 6.4 nM at EGFR del19/C797S (setting [6]); 0.1 nM on EGFR L858R/T790M/C797S (setting [8]); 0.3 nM at EGFR del19/T790M/C797S (setting [10]).
On to `O=S(=O)(C1CC1)n1cc(-c2nccc(Nc3cc(NC4CCC(F)(CO)CC4)c(-c4ccn(C(F)F)n4)cn3)n2)cn1` (stereo not drawn) [Example 190, (4-((2-((2-(1-(Cyclopropylsulfonyl)-1H-pyrazol-4-yl)pyrimidin-4-yl)amino)-5-(1-(difluoromethyl)-1H-pyrazol-3-yl)pyridin-4-yl)amino)-1-fluorocyclohexyl)methanol], for which the IC50 against EGFR L858R/C797S (setting [1]) was 119 nM; at EGFR L858R/C797S (setting [2]), 6.7 nM; against EGFR wildtype (WT) (setting [3]) it was greater than 10000 nM; at EGFR wildtype (WT) (setting [4]), 109 nM; on EGFR del19/C797S (setting [5]) it was 11.9 nM; at EGFR del19/C797S (setting [6]), 9.1 nM. Further, the IC50 at EGFR L858R/T790M/C797S (setting [7]) came out at 1.8 nM; on EGFR L858R/T790M/C797S (setting [8]) it was 0.6 nM; at EGFR del19/T790M/C797S (setting [9]), 1.2 nM; on EGFR del19/T790M/C797S (setting [10]), 0.9 nM.
Turning to `O=S(=O)(C1CC1)n1cc(-c2nccc(Nc3cc(N[C@H]4CC[C@@H](CO)CC4)c(-c4ccn(CC(F)F)n4)cn3)n2)cn1` [Example 244, ((1s,4s)-4-((2-((2-(1-(Cyclopropylsulfonyl)-1H-pyrazol-4-yl)pyrimidin-4-yl)amino)-5-(1-(2,2-difluoroethyl)-1H-pyrazol-3-yl)pyridin-4-yl)amino)cyclohexyl)methanol], the IC50 on EGFR L858R/C797S (setting [1]) stood at 1.9 nM; on EGFR L858R/C797S (setting [2]) it was 0.5 nM; on EGFR wildtype (WT) (setting [3]), 975 nM; at EGFR wildtype (WT) (setting [4]), 2.3 nM; against EGFR del19/C797S (setting [5]) it was 0.5 nM; on EGFR del19/C797S (setting [6]) it was 0.6 nM. In addition, the IC50 at EGFR L858R/T790M/C797S (setting [7]) is 0.4 nM; on EGFR L858R/T790M/C797S (setting [8]), 0.1 nM; against EGFR del19/T790M/C797S (setting [9]) it was 0.2 nM; at EGFR del19/T790M/C797S (setting [10]), 0.3 nM.
On to `C[C@]1(O)CC[C@@H](Nc2cc(Nc3ccnc(-c4cnn(S(=O)(=O)N5CC(F)C5)c4)n3)ncc2-c2ccn(C(F)F)n2)CC1` [Example 324, (1s,4s)-4-((5-(1-(Difluoromethyl)-1H-pyrazol-3-yl)-2-((2-(1-((3-fluoroazetidin-1-yl)sulfonyl)-1H-pyrazol-4-yl)pyrimidin-4-yl)amino)pyridin-4-yl)amino)-1-methylcyclohexan-1-ol], for which the IC50 at EGFR L858R/C797S (setting [2]) turned out to be 13.2 nM; on EGFR wildtype (WT) (setting [4]), 55.5 nM; on EGFR del19/C797S (setting [6]) it was 66.9 nM; on EGFR L858R/T790M/C797S (setting [8]) it was 1.7 nM; at EGFR del19/T790M/C797S (setting [10]), 4.6 nM.
Take `O=S(=O)(C1CC1)n1cc(-c2nccc(Nc3cc(NC4CCC(F)(F)CC4)c(-c4ccn(C(F)F)n4)cn3)n2)cn1` [Example 215, N^2-(2-(1-(Cyclopropylsulfonyl)-1H-pyrazol-4-yl)pyrimidin-4-yl)-N^4-(4,4-difluorocyclohexyl)-5-(1-(difluoromethyl)-1H-pyrazol-3-yl)pyridine-2,4-diamine]: the IC50 on EGFR L858R/C797S (setting [2]) was 32.5 nM; at EGFR wildtype (WT) (setting [4]), 434 nM; at EGFR del19/C797S (setting [6]), 70.2 nM; on EGFR L858R/T790M/C797S (setting [8]), 8.6 nM; at EGFR del19/T790M/C797S (setting [10]), 11.9 nM.
